Results taken from article PMC3733984, “Tylophorine, a phenanthraindolizidine alkaloid isolated from Tylophora indica exerts antiangiogenic and antitumor activity by targeting vascular endothelial growth factor receptor 2–mediated angiogenesis” (Molecular Cancer, 2013).

Target: VEGFR2 (KDR/Flk-1) (Homo sapiens, UniProt P35968)
Assay: in vitro HTScan VEGFR2 kinase assay, colorimetric ELISA detection ([…] ATP)
Format: biochemical

VEGFR2 (KDR/Flk-1), sequence (P35968 20-1356): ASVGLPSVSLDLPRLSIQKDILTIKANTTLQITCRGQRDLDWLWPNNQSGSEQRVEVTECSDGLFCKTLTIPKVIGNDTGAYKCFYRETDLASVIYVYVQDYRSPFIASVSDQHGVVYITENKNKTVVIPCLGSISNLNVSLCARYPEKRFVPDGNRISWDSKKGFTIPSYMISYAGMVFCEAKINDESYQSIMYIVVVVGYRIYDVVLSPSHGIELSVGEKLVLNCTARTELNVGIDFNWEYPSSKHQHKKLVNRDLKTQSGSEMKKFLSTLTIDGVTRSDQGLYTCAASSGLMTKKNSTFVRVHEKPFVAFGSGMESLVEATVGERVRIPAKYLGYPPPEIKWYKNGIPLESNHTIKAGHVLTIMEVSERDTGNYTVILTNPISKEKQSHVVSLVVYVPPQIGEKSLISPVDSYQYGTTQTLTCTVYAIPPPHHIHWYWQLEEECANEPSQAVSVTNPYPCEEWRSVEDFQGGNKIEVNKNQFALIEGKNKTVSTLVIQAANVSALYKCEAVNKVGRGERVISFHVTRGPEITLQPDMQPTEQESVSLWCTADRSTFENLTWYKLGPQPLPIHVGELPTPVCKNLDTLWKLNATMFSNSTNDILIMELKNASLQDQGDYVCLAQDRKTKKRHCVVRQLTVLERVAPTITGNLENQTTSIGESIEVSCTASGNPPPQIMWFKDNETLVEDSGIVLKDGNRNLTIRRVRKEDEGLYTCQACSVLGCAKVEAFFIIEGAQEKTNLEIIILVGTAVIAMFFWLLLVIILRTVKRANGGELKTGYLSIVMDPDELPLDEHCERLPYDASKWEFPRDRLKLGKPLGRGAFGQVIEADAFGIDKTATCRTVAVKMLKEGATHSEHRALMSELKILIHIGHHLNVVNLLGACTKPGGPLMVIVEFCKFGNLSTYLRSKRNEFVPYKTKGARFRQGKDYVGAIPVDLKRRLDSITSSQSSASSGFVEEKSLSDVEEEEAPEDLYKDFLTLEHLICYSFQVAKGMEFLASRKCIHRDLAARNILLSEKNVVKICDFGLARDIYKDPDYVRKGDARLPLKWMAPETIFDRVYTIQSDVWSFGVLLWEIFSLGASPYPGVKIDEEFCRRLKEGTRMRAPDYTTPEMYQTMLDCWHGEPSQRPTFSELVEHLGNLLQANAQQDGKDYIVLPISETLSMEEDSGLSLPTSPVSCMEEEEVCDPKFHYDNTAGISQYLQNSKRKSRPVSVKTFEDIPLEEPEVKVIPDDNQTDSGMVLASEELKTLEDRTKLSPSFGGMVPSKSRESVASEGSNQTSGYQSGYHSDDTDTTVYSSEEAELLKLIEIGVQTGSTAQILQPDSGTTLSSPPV

**Q.** For COc1cc2c3c(c4cc(OC)c(OC)cc4c2cc1OC)CN1CCC[C@@H]1C3 [Tylophorine], which IC50 is on record?
**A.** ~9.2 µM
